The values below come from paper PMC12392461, “Beyond Estrogenicity: A Comparative Assessment of Bisphenol A and Its Alternatives in In Vitro Assays Questions Safety of Replacements” (Environmental Science & Technology, 2025).

Read-outs that look alike come from different tables or passages of the source.

One data set deals with T1, Estrogen Receptor ERα (Homo sapiens, UniProt P03372).
T1 sequence (P03372 311-547 limits assumed): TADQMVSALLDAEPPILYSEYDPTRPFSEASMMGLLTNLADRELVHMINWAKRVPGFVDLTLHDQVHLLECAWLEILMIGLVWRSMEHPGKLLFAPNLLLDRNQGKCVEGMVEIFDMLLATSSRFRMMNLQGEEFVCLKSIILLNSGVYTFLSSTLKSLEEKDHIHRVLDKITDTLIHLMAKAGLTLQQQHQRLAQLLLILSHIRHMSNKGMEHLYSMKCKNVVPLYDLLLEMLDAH
Put plainly: cell-based. To be noted: for EC10, ERα (M): 10% of maximum effect of E2; for REPBPA,ERα (relative effect potency in relation to BPA): EC10,BPA/EC10,BPx; for EC10, linear transformed / EC10, linear / logEC10: dosing range all; for SR-ScoreERα: SR-Score, sigma k=1, x=5; for Specificity ratio (SRbaseline) SRERα: against baseline cytotoxicity; for Specificity ratio (SRcytotoxicity) SRERα: against experimental cytotoxicity; for ERα activation: at noncytotoxic concentrations; for EC10, ERα: effect; for log(1/EC10) ERα: input of the ToxPi score, values up to 1.00; for Relative effect potency REPERα: relative to BPA; for EC10: ERα; for REPBPA: relative estrogenic potency vs BPA. The gist of the method: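 ERα-UAS-bla GripTite and PPARγ-UAS-bla β-lactamase reporter cells were seeded and held 24 h at 37 °C, 5% CO₂ before dosing. EC10 values used only concentrations below the IC10 from IncuCyte confluency. Emax% is the log-logistic curve maximum relative to the reference chemical's maximum.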

Data set [1] is described as follows: Octanol-water partition constant (log Kow) measurement, Sirius T3 potentiometric log P. It is filed as physicochemical. To be noted: experimental, this study. As to the method: Physicochemical properties provide input parameters for the baseline toxicity model. Acidity constants (pK a) and octanol–water partition constants of the neutral species (K ow) were measured with a Sirius T instrument from Pion Inc. (Sussex, UK) (Text S1.2 and Table S1). A detailed description of the pK a and K ow measurements can be found in literature. , […]
S1.2: pKa and log Kow measurements […]
titrator (Pion Inc., Sussex, U.K.). […]
UV absorbance. For log Kow measurement, approximately 1 mg of test chemical was added to a sample vial and the measurement was done automatically via the potentiometric log P protocol. Briefly, each compound is titrated thrice in an immiscible biphasic system of octanol and phosphate buffer solution and pH is continuously recorded. The shift in p Ka -values was used to estimate the log Kow values.2, 3 Data processing was performed with Sirius T3 Refine software (version 2.0.0.0.), and the final p Ka and log Kow values were calculated as the average of three titrations. To ensure reproducibility, measurements were conducted on at least two

The test system of a further data set is PPARγ. Also on record: method as in Crosthwait et al. 2025; Sun et al. 2025. To be noted: ref Crosthwait et al. 2025; Sun et al. 2025; cited from earlier work.
The nature of data set [2]: Abiotic CYP (aCYP) oxidation, remaining parent compound (Cparent-Ratio). To be noted: for Cparent-Ratio Rep.1 %: Table S9, replicate 1; for Cparent-Ratio Rep.2 %: Table S9, replicate 2.
The next data set has as its system ERα. As to conditions: ref Pelch et al 2019; cited from earlier work.
Where [3] appears, read: Bioassay ERα, linear model fit, in M.
[4] abbreviates: Bioassay ERα, log-logistic model fit.
Where [5] appears, read: Table S9, loss of parent after aCYP oxidation.
[6] abbreviates: Table S9, mean of two replicate experiments.
Setting [7] is: Table S9, replicate 1, as fraction.
Where [8] appears, read: Table S9, replicate 2, as fraction.
Where [9] appears, read: Table S11, measured simultaneously with bioassay.

A word on the Emax: it is the greatest response seen or fitted, relative to the assay's reference. Regarding `O=S(=O)(c1ccc(O)cc1)c1ccccc1O` [2,4-BPS, 2,4'-Dihydroxydiphenyl sulfone], on Estrogen Receptor ERα, the “times less potent than BPS (ERα)” value is 10; the “EC10, ERα (M)” value is 1.98 × 10^–5 M; the “REPBPA,ERα (relative effect potency in relation to BPA)” value was found to be 0.019; the SR-ScoreERα turned out to be 1.00. In addition, at Estrogen Receptor ERα, the “Specificity ratio (SRbaseline) SRERα” value worked out at 27.68; the “Specificity ratio (SRcytotoxicity) SRERα” value worked out at 21.81; the ERα activation entry was “did not activate ERα at noncytotoxic concentrations”; the “EC10, ERα” value was 19.8 µM. Moreover, at Estrogen Receptor ERα, the “log(1/EC10) ERα” value turned out to be 0.60 and the “Relative effect potency REPERα” value was determined as 0.0187. In addition, the “EC10, linear transformed” value on Estrogen Receptor ERα (ERα bioassay, in M) is listed as 3.59E-05. Moreover, the “EC10, linear” value at Estrogen Receptor ERα (ERα bioassay, linear model, in M) was 5.15E-05. Besides, at Estrogen Receptor ERα (ERα bioassay, log-logistic model), the logEC10 is given as -4.70. Besides, the maximal effect (Emax) on Estrogen Receptor ERα (read-out: Emax%ERα, maximum efficacy relative to E2) stood at 19%. Also, in data set [1], the “log Kow used” value amounted to 1.90. Also, the “PPARγ transactivation reported in the literature” value (“PPARγ transactivation reported” below) in the data set with PPARγ was “No agonism was detected”.
Turning to `C=CCOc1ccc(S(=O)(=O)c2ccc(O)cc2)cc1` [BPS-MAE, 4-[[4-(Allyloxy)phenyl]sulfonyl]phenol], at Estrogen Receptor ERα, the “EC10, ERα (M)” value is recorded as 1.41 × 10^–5 M; the SR-ScoreERα was found to be 1.00; the “EC10, ERα” value came out at 14.1 µM; the “log(1/EC10) ERα” value was determined as 0.62. Besides, the “EC10, linear transformed” value at Estrogen Receptor ERα (Bioassay ERα, in M) was 1.26E-05. Besides, at Estrogen Receptor ERα (setting [3]), the “EC10, linear” value worked out at 1.41E-05. In addition, the logEC10 at Estrogen Receptor ERα (setting [4]) is -4.90. Besides, on Estrogen Receptor ERα (This Study, in M), the EC10 is listed as 1.41E-05. The compound further yielded an REPBPA at Estrogen Receptor ERα (This Study) of 2.63E-02. Moreover, in the data set with PPARγ, the “PPARγ transactivation reported” value is reported as “weaker effects”. Further, in data set [2] (setting [5]), the “% Loss” value is given as 1.47%. In addition, the Efficacy % in the data set on ERα is on record as 10.30%.
`O=S(=O)(c1ccc(O)cc1)c1ccc(OCc2ccccc2)cc1` [BPS-MPE, 4-[4-(benzyloxy)benzenesulfonyl]phenol]: at Estrogen Receptor ERα (Bioassay ERα, linear model fit), the “EC10, linear” value is recorded as “no effect”. Besides, the logEC10 result on Estrogen Receptor ERα (setting [4]) is on record as “no effect”. Besides, the ERα activation result at Estrogen Receptor ERα was “did not activate ERα at noncytotoxic concentrations”. The “log Kow used” value in data set [1] is recorded as 4.28. For the same compound, the “PPARγ transactivation reported” value in the data set with PPARγ is recorded as “significant PPARγ activation”. The “% Loss” value in data set [2] (setting [5]) was 0.295%. Also, the “Cparent-Ratio Mean” value in data set [2] (setting [6]) was 1.00. Besides, in data set [2], the “Cparent-Ratio Rep.1 %” value amounted to 118.51% and the “Cparent-Ratio Rep.2 %” value amounted to 80.90%. Moreover, the “Cparent-Ratio Rep.1” value in data set [2] (setting [7]) was 1.19. Also, the “Cparent-Ratio Rep.2” value in data set [2] (setting [8]) is on record as 0.81. For the same compound, in the data set with ERα, the Efficacy % is 9.40%.
On to `CC(C)Oc1ccc(S(=O)(=O)c2ccc(O)cc2)cc1` [D8, 4-((4-Isopropoxyphenyl)sulfonyl)phenol], for which, on Estrogen Receptor ERα, the “EC10, ERα (M)” value was 1.12 × 10^–5 M; the “REPBPA,ERα (relative effect potency in relation to BPA)” value turned out to be 0.033; the SR-ScoreERα came to 1.00; the “Specificity ratio (SRbaseline) SRERα” value was 5.88. Moreover, at Estrogen Receptor ERα, the “Specificity ratio (SRcytotoxicity) SRERα” value turned out to be 16.41; the “EC10, ERα” value was 11.2 µM; the “log(1/EC10) ERα” value is 0.63; the “Relative effect potency REPERα” value is 0.0329. The “EC10, linear transformed” value on Estrogen Receptor ERα (Bioassay ERα, in M) was determined as 1.21E-05. In addition, the “EC10, linear” value at Estrogen Receptor ERα (setting [3]) was 1.41E-05. Further, the logEC10 on Estrogen Receptor ERα (setting [4]) is -4.95. On Estrogen Receptor ERα (This Study), this compound showed an Efficacy % of 18.50% and an REPBPA of 3.29E-02. Moreover, the EC10 at Estrogen Receptor ERα (This Study, in M) worked out at 1.12E-05. Moreover, at Estrogen Receptor ERα (read-out: Emax%ERα), the Emax worked out at 18%. Moreover, the “PPARγ transactivation reported” value in the data set on PPARγ was “weaker effects”. In addition, the “% Loss” value in data set [2] (setting [5]) is -13%. In data set [2] (setting [6]), the “Cparent-Ratio Mean” value was 1.13. For the same compound, in data set [2], the “Cparent-Ratio Rep.1 %” value was 114.96% and the “Cparent-Ratio Rep.2 %” value came out at 110.37%. In addition, the “Cparent-Ratio Rep.1” value in data set [2] (setting [7]) is recorded as 1.15. Further, in data set [2] (setting [8]), the “Cparent-Ratio Rep.2” value was 1.10. For the same compound, in the data set with ERα, the Efficacy % is reported as 10.30%.
As to `Cc1ccc(S(=O)(=O)NC(=O)Nc2cccc(OS(=O)(=O)c3ccc(C)cc3)c2)cc1` [Pergafast, N-(p-toluenesulfonyl)-N'-(3-(p-toluenesulfonyloxy)phenyl)urea], the “EC10, linear” value on Estrogen Receptor ERα (Bioassay ERα, linear model fit) is listed as “no effect”. The logEC10 result at Estrogen Receptor ERα (setting [4]) is “no effect”. Moreover, the ERα activation entry on Estrogen Receptor ERα is “did not activate ERα at noncytotoxic concentrations”. Besides, the “log Kow used” value in data set [1] is recorded as 4.11. Further, in the data set on PPARγ, the “PPARγ transactivation reported” value is reported as “weaker effects”. Moreover, the “reduction of C parent after aCYP oxidation” value in data set [2] (15 min, 30 °C) is on record as 44%. Also, the “% Loss” value in data set [2] (setting [5]) amounted to 44%; in data set [2] (Table S11) it was 32%. Moreover, the “Cparent-Ratio Mean” value amounted to 0.56 in data set [2] (setting [6]) and 0.68 in data set [2] (setting [9]). Moreover, the “Cparent-Ratio Rep.1 %” value in data set [2] was found to be 66.98%. For the same compound, the “Cparent-Ratio Rep.1” value turned out to be 0.67 in data set [2] (setting [7]) and 0.75 in data set [2] (setting [9]). Moreover, the “Cparent-Ratio Rep.2 %” value in data set [2] was 45.82%. Further, the “Cparent-Ratio Rep.2” value in data set [2] (setting [8]) is on record as 0.46; in data set [2] (setting [9]) it was 0.61.
